In ChEMBL document CHEMBL4330132, “5-Keto-3-cyano-2,4-diaminothiophenes as selective maternal embryonic leucine zipper kinase inhibitors” (Bioorg Med Chem Lett, 2019):

Legend:
[1] = biological target: AP2-associated protein kinase 1 (Homo sapiens) (UniProt Q2M2I8); test: Binding affinity to human wild-type AAK1 (G25 to L333 residues) expressed in bacterial expression system assessed as residual binding level at 1 uM by Kinomescan method relative to control
[2] = test system: Tyrosine-protein kinase ABL1 (Homo sapiens), P00519 [F317I]; test: Binding affinity to human non-phosphorylated ABL1 F317I mutant (S229 to K512 residues) expressed in mammalian expression system assessed as residual binding level at 1 uM by Kinomescan method relative to control
[3] = test system: Tyrosine-protein kinase ABL1 (Homo sapiens), P00519 [F317L]; test: Binding affinity to human non-phosphorylated ABL1 F317L mutant (S229 to K512 residues) expressed in mammalian expression system assessed as residual binding level at 1 uM by Kinomescan method relative to control
[4] = test system: Tyrosine-protein kinase ABL1 (Homo sapiens), P00519 [M351T]; test: Binding affinity to human phosphorylated ABL1 M351T mutant (S229 to K512 residues) expressed in mammalian expression system assessed as residual binding level at 1 uM by Kinomescan method relative to control
[5] = biological target: ALK tyrosine kinase receptor (Homo sapiens) (UniProt Q9UM73); test: Binding affinity to wild-type human partial length ALK (I1088 to E1409 residues) expressed in mammalian expression system assessed as residual binding level at 1 uM by Kinomescan method relative to control
[6] = biological target: CDK4/Cyclin D3 (Homo sapiens) (UniProt P11802+P30281); test: Binding affinity to wild-type human full length CDK4/cyclinD3 (M1 to E303 residues) expressed in mammalian expression system assessed as residual binding level at 1 uM by Kinomescan method relative to control
[7] = biological target: Eukaryotic translation initiation factor 2-alpha kinase 1 (Homo sapiens) (UniProt Q9BQI3); test: Binding affinity to wild-type human partial length EIF2AK1 (Q147 to E603 residues) expressed in mammalian expression system assessed as residual binding level at 1 uM by Kinomescan method relative to control
[8] = biological target: Ephrin type-A receptor 3 (Homo sapiens) (UniProt P29320); test: Binding affinity to wild-type human partial length EPHA3 (D604 to K889 residues) expressed in bacterial expression system assessed as residual binding level at 1 uM by Kinomescan method relative to control
[9] = biological target: Tyrosine-protein kinase Fgr (Homo sapiens) (UniProt P09769); test: Binding affinity to wild-type human partial length FGR (L233 to T529 residues) expressed in bacterial expression system assessed as residual binding level at 1 uM by Kinomescan method relative to control
Chain of Tyrosine-protein kinase Fgr (Homo sapiens) (P09769 2-529 limits assumed): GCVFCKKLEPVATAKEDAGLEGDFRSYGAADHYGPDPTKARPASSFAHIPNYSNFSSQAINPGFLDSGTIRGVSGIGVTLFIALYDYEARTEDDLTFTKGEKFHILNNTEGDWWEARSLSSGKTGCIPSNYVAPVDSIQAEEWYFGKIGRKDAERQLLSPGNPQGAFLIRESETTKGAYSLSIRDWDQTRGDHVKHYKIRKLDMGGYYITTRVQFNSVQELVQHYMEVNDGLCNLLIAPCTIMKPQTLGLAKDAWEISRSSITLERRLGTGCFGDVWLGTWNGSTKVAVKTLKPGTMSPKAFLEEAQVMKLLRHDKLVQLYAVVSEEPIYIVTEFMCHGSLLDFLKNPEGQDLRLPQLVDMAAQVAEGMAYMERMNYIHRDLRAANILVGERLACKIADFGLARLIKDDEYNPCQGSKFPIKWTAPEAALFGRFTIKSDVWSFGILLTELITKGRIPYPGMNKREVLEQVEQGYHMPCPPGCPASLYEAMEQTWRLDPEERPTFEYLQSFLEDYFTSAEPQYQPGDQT

[10] = biological target: Mitogen-activated protein kinase kinase kinase 3 (Homo sapiens) (UniProt Q99759); test: Binding affinity to wild-type human partial length MAP3K3 (E320 to Y626 residues) expressed in mammalian expression system assessed as residual binding level at 1 uM by Kinomescan method relative to control
[11] = biological target: Mitogen-activated protein kinase kinase kinase kinase 3 (Homo sapiens) (UniProt Q8IVH8); test: Binding affinity to wild-type human partial length MAP4K3 (M1 to D301 residues) expressed in bacterial expression system assessed as residual binding level at 1 uM by Kinomescan method relative to control
[12] = biological target: Dual specificity mitogen-activated protein kinase kinase 3 (Homo sapiens) (UniProt P46734); test: Binding affinity to wild-type human full length MEK3 (M1 to S318 residues) expressed in mammalian expression system assessed as residual binding level at 1 uM by Kinomescan method relative to control
[13] = biological target: Hepatocyte growth factor receptor (Homo sapiens) (UniProt P08581); test: Binding affinity to wild-type human partial length MET (D1010 to S1367 residues) expressed in bacterial expression system assessed as residual binding level at 1 uM by Kinomescan method relative to control
[14] = test system: Hepatocyte growth factor receptor (Homo sapiens), P08581 [M1250T]; test: Binding affinity to human partial length MET M1250T mutant (D1010 to S1367 residues) expressed in bacterial expression system assessed as residual binding level at 1 uM by Kinomescan method relative to control
[15] = biological target: Serine/threonine-protein kinase MRCK beta (Homo sapiens) (UniProt Q9Y5S2); test: Binding affinity to wild-type human partial length MRCKB (L56 to S417 residues) expressed in bacterial expression system assessed as residual binding level at 1 uM by Kinomescan method relative to control
Chain of Serine/threonine-protein kinase MRCK beta (Homo sapiens) (Q9Y5S2 whole entry, the tested form may be a part): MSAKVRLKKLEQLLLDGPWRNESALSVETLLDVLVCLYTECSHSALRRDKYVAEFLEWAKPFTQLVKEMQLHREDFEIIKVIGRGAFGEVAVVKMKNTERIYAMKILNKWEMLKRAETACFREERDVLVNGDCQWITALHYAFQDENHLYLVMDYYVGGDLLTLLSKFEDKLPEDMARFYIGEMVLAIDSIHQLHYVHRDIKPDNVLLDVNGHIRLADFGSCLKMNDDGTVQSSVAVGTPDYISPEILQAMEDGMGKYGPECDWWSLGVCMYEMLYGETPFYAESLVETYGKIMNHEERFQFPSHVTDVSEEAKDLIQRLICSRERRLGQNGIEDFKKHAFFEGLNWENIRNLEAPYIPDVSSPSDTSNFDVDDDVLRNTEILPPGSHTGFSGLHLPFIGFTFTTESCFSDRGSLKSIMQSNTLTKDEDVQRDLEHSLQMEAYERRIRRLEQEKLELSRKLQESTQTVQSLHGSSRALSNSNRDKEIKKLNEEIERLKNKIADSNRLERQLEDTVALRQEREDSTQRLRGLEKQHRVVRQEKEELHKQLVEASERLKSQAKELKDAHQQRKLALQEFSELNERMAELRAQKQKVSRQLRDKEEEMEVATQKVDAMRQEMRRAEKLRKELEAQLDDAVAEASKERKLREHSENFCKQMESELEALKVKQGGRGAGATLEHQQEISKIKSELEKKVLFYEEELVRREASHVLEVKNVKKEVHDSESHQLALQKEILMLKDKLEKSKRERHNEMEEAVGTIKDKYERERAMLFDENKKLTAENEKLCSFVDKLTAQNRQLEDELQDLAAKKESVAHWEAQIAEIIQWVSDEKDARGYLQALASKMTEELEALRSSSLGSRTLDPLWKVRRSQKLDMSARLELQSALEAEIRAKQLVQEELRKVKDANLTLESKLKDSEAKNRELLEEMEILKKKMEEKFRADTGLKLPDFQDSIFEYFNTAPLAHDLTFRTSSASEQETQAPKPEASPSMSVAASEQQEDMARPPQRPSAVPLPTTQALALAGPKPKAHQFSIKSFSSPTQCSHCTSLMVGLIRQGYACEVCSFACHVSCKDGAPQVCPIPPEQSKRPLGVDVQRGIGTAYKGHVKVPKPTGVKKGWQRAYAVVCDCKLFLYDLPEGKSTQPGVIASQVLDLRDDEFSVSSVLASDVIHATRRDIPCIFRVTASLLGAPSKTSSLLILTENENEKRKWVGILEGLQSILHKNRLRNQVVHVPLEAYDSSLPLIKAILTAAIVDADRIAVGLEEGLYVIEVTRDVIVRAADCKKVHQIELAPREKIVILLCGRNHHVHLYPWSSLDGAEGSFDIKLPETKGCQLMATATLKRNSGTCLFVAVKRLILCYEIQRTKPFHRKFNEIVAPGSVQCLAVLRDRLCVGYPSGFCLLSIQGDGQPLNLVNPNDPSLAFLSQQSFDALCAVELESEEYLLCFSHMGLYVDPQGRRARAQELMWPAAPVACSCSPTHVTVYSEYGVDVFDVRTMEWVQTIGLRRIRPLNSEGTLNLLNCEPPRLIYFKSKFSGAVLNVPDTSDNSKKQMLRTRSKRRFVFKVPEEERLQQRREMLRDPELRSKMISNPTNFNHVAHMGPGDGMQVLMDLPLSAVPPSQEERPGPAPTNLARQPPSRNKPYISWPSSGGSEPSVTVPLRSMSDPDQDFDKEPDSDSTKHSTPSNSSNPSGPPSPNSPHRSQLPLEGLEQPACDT

[16] = biological target: Serine/threonine-protein kinase 24 (Homo sapiens) (UniProt Q9Y6E0); test: Binding affinity to wild-type human partial length MST3 (A30 to S311 residues) expressed in bacterial expression system assessed as residual binding level at 1 uM by Kinomescan method relative to control
[17] = biological target: Serine/threonine-protein kinase OSR1 (Homo sapiens) (UniProt O95747); test: Binding affinity to wild-type human full length OSR1 (M1 to S527 residues) expressed in mammalian expression system assessed as residual binding level at 1 uM by Kinomescan method relative to control
Chain of Serine/threonine-protein kinase OSR1 (Homo sapiens) (O95747 2-527 limits assumed): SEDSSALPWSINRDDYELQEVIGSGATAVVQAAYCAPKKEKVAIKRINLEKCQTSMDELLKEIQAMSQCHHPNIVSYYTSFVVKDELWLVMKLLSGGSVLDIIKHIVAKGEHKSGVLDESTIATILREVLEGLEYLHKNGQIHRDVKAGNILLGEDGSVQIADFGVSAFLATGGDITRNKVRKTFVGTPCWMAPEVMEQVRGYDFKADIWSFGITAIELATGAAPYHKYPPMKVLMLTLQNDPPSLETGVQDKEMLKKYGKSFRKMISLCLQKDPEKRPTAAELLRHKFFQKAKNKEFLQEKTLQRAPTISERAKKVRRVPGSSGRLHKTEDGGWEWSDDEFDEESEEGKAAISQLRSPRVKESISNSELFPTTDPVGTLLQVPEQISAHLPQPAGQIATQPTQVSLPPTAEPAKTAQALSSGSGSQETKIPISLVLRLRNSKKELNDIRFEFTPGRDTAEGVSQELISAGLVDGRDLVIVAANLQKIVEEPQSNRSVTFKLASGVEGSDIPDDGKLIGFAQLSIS

[18] = biological target: Serine/threonine-protein kinase PAK 5 (Homo sapiens) (UniProt Q9P286); test: Binding affinity to wild-type human partial length PAK7 (Y400 to H719 residues) expressed in bacterial expression system assessed as residual binding level at 1 uM by Kinomescan method relative to control
[19] = biological target: Phosphorylase b kinase gamma catalytic chain, liver/testis isoform (Homo sapiens) (UniProt P15735); test: Binding affinity to wild-type human partial length PHKG2 (M1 to W300 residues) expressed in bacterial expression system assessed as residual binding level at 1 uM by Kinomescan method relative to control
[20] = test system: Phosphatidylinositol 4,5-bisphosphate 3-kinase catalytic subunit alpha isoform (Homo sapiens), P42336 [E545A]; test: Binding affinity to human partial length PIK3CA E545A mutant (R108 to N1068 residues) expressed in mammalian expression system assessed as residual binding level at 1 uM by Kinomescan method relative to control
[21] = biological target: Proto-oncogene tyrosine-protein kinase ROS (Homo sapiens) (UniProt P08922); test: Binding affinity to wild-type human partial length ROS1 (A1921 to N2240 residues) expressed in bacterial expression system assessed as residual binding level at 1 uM by Kinomescan method relative to control
[22] = biological target: Mitogen-activated protein kinase kinase kinase 7 (Homo sapiens) (UniProt O43318); test: Binding affinity to wild-type human partial length TAK1 (M1 to Q303 residues) expressed in mammalian expression system assessed as residual binding level at 1 uM by Kinomescan method relative to control
Chain of Mitogen-activated protein kinase kinase kinase 7 (Homo sapiens) (O43318 whole entry, the tested form may be a part): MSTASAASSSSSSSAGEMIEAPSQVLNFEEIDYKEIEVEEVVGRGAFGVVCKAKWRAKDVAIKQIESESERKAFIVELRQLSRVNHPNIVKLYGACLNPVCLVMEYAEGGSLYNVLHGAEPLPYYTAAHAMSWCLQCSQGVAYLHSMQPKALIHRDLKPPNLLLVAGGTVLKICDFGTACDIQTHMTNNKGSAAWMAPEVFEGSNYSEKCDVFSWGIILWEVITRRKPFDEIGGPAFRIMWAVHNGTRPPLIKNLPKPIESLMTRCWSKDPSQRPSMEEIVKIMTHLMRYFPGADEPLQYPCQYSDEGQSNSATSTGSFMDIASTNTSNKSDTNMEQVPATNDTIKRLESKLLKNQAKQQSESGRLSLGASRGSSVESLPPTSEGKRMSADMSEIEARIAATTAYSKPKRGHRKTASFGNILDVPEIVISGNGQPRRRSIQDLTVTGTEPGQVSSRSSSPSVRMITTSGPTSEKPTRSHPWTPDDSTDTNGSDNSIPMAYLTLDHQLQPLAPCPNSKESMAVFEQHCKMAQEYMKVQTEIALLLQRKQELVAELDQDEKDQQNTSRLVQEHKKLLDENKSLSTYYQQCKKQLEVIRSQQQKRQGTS

[23] = biological target: Vascular endothelial growth factor receptor 2 (Homo sapiens) (UniProt P35968); test: Binding affinity to wild-type human partial length VEGFR2 (R787 to P1253 residues) expressed in mammalian expression system assessed as residual binding level at 1 uM by Kinomescan method relative to control
[24] = biological target: Wee1-like protein kinase (Homo sapiens) (UniProt P30291); test: Binding affinity to wild-type human partial length WEE1 (M291 to K575 residues) expressed in bacterial expression system assessed as residual binding level at 1 uM by Kinomescan method relative to control
Chain of Wee1-like protein kinase (Homo sapiens) (P30291 whole entry, looked up, the tested form may be a part): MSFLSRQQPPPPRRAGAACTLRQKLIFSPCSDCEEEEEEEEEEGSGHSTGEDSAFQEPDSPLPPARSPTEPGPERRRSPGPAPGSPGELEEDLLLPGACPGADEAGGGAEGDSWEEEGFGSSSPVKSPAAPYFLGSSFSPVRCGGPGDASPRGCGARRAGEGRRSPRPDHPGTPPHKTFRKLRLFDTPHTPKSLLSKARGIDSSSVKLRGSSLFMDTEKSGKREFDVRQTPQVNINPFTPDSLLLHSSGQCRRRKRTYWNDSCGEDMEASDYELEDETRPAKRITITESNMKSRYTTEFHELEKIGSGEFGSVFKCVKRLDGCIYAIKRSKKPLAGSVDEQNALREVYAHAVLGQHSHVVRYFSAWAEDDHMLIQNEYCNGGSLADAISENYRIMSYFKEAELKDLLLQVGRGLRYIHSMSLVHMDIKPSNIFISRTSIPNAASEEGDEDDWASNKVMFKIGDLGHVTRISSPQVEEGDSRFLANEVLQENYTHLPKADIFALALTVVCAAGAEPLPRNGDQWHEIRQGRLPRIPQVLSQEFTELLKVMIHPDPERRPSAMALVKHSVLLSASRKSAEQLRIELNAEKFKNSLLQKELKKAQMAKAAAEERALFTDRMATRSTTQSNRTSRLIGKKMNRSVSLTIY

Chain of AP2-associated protein kinase 1 (Homo sapiens) (Q2M2I8 whole entry, looked up, the tested form may be a part): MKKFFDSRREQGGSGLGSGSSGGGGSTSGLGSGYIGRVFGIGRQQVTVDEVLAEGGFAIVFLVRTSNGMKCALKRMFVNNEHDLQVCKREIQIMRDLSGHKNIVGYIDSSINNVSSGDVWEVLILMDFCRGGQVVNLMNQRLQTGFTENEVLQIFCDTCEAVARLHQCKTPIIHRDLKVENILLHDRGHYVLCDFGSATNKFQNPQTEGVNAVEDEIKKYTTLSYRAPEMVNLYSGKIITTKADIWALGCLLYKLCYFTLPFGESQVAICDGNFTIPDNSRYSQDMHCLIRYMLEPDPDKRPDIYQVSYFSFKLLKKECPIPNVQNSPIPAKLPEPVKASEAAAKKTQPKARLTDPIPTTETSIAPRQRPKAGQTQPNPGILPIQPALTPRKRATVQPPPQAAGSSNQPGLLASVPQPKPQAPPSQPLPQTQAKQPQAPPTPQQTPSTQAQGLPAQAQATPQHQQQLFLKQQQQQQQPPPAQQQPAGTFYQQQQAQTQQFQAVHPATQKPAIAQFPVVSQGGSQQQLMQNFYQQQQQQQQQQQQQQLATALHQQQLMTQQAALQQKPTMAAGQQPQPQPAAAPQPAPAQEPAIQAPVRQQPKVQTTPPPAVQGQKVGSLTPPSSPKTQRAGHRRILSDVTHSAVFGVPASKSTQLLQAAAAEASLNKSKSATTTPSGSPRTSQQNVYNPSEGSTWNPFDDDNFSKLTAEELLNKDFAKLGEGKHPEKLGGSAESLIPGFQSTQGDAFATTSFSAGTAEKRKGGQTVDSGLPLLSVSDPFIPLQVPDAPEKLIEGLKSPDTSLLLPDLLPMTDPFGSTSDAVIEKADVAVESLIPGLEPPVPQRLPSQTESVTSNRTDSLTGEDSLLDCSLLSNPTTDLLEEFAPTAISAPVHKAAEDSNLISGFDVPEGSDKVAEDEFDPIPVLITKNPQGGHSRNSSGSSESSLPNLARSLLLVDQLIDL

Compound: CC(C)Nc1sc(C(=O)c2ccc(Cl)s2)c(N)c1C#N
- Activity [1]: 16%
- Activity [2]: 100%
- Activity [3]: 100%
- Activity [4]: 100%
- Activity [5]: 100%
- Activity [6]: 100%
- Activity [7]: 100%
- Activity [8]: 72%
- Activity [9]: 97%
- Activity [10]: 100%
- Activity [11]: 59%
- Activity [12]: 100%
- Activity [13]: 68%
- Activity [14]: 78%
- Activity [15]: 90%
- Activity [16]: 99%
- Activity [17]: 83%
- Activity [18]: 81%
- Activity [19]: 72%
- Activity [20]: 100%
- Activity [21]: 82%
- Activity [22]: 100%
- Activity [23]: 93%
- Activity [24]: 94%
